Like-named read-outs stand apart in the source and are kept apart here. Marks after values point to notes of the source that are not given here.
Tests used:
[1] = system: NMDARs in cultured cortical neurons transfected with GluN2C and GFP; assay type: cell-based, rat
[2] = system: NMDARs in cultured cortical neurons transfected with GFP alone (control); assay type: cell-based, rat
[3] = biological target: NMDARs in cerebellar granule cells, wild type mice (Mus musculus, UniProt P35436+P35438+Q01098); assay type: cell-based
NMDARs in cerebellar granule cells, wild type mice, sequence (P35436 23-1464, other chains not shown): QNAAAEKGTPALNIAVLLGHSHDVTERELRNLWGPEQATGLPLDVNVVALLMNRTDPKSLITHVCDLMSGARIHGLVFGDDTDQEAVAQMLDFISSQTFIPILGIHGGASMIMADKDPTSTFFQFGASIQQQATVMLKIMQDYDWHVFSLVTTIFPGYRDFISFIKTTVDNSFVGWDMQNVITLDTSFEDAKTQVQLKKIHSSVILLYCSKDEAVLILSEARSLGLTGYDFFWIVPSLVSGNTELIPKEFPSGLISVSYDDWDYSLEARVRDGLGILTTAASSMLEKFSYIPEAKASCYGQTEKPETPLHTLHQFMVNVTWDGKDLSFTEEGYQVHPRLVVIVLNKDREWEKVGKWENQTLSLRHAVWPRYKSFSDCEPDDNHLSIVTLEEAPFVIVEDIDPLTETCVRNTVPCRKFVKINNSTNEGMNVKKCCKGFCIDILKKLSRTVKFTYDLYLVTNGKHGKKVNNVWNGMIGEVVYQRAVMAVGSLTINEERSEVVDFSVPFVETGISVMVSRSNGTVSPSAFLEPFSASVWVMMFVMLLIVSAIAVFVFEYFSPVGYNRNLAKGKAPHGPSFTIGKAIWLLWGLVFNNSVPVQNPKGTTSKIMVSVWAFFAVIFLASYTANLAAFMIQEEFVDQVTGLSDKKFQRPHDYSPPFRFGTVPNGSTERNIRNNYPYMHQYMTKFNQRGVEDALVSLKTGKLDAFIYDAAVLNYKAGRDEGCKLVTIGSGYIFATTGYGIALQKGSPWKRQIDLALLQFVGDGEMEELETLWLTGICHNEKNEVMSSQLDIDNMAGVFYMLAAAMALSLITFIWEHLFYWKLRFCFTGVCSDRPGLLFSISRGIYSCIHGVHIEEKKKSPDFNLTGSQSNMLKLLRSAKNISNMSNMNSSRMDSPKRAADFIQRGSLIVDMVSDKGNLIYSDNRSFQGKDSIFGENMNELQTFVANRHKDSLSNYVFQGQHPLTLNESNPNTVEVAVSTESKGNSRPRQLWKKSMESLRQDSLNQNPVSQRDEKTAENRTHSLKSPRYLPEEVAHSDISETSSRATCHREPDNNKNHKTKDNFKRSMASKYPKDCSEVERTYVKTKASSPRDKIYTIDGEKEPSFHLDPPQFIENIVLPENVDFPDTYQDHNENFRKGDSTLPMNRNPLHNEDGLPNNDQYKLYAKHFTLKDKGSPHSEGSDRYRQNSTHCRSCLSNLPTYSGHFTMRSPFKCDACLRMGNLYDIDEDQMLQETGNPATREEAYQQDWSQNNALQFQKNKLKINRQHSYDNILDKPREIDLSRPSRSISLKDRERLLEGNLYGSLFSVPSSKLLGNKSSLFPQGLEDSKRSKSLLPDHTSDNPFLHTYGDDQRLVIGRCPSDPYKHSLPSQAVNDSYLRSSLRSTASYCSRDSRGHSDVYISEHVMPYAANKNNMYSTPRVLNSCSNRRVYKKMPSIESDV
NMDARs in cerebellar granule cells, wild type mice, sequence (Q01098 20-1239, other chains not shown): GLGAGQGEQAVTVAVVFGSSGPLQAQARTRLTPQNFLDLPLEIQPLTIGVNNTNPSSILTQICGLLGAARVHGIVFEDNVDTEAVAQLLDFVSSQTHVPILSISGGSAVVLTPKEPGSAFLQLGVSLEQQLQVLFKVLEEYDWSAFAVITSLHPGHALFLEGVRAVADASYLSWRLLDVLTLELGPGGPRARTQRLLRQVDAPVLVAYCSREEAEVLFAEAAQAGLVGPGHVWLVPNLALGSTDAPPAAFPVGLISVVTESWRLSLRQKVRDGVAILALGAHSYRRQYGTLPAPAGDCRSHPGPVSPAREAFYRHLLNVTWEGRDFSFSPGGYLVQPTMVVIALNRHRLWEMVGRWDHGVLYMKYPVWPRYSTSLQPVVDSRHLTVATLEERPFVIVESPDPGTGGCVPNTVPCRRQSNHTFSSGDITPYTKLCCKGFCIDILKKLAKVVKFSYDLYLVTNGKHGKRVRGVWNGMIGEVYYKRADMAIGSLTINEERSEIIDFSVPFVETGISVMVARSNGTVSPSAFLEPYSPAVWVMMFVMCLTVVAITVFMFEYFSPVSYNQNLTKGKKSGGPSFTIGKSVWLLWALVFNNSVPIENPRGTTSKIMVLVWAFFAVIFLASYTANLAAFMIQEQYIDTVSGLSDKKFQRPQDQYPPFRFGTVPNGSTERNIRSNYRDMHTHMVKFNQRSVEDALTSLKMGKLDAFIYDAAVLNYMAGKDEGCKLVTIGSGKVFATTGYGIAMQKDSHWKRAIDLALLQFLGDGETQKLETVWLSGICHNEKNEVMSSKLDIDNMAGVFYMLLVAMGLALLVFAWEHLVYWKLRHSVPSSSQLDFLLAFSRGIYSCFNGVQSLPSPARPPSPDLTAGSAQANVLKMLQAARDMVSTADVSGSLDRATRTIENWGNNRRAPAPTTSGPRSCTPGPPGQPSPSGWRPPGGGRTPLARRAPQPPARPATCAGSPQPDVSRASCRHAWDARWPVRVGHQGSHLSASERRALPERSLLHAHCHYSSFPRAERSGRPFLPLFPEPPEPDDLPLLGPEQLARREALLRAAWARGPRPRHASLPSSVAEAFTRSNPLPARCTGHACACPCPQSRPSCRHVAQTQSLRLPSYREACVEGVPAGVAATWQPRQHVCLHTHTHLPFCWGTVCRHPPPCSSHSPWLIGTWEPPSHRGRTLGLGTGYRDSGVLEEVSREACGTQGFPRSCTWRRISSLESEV

[4] = biological target: NMDARs in cultured cortical neurons (Rattus norvegicus, UniProt P35439+Q00960); assay type: cell-based; conditions: spermine potentiation of native GluN2B-mediated current responses, n=3
[5] = system: NMDARs in cultured cortical neurons; assay type: cell-based, rat; conditions: 400 μM DL-APV
[6] = biological target: GluN1/GluN2AC1/GluN2CC2(NK) (Rattus norvegicus, UniProt P35439+Q00959+Q00961, N612K); assay: Two-electrode voltage-clamp recordings in Xenopus oocytes; assay type: cell-based; conditions: for GluN2AC1/GluN2CC2(NK) fitted response in saturating Zn2+ as percent of control: mean ± SEM; for IC50: read-out: GluN2AC1/GluN2CC2(NK) EC50 (95% CI), IC50 in text, Zn2+ inhibition
GluN1/GluN2AC1/GluN2CC2(NK), sequence (Q00961 20-836 N612K, other chains not shown): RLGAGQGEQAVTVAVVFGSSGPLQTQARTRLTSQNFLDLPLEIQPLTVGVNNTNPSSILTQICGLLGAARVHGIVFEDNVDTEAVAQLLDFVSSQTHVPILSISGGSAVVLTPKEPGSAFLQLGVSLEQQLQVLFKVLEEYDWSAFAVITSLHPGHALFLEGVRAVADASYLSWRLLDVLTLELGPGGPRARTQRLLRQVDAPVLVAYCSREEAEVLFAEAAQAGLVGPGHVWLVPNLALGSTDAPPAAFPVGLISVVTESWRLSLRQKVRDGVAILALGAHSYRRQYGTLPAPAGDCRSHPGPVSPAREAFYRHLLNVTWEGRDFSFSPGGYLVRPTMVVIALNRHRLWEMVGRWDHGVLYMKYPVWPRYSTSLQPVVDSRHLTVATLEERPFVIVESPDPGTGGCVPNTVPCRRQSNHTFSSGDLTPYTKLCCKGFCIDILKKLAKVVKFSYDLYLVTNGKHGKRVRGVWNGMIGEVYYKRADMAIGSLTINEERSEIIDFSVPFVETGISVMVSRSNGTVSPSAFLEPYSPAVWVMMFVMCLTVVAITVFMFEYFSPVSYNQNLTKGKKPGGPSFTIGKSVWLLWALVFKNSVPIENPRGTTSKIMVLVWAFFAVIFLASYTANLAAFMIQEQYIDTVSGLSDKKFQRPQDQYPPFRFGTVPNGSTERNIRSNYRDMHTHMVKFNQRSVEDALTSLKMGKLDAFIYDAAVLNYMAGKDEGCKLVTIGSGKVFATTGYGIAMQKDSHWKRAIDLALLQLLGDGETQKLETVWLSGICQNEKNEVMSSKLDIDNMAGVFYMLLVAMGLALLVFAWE
GluN1/GluN2AC1/GluN2CC2(NK), sequence (Q00959 23-1464, other chains not shown): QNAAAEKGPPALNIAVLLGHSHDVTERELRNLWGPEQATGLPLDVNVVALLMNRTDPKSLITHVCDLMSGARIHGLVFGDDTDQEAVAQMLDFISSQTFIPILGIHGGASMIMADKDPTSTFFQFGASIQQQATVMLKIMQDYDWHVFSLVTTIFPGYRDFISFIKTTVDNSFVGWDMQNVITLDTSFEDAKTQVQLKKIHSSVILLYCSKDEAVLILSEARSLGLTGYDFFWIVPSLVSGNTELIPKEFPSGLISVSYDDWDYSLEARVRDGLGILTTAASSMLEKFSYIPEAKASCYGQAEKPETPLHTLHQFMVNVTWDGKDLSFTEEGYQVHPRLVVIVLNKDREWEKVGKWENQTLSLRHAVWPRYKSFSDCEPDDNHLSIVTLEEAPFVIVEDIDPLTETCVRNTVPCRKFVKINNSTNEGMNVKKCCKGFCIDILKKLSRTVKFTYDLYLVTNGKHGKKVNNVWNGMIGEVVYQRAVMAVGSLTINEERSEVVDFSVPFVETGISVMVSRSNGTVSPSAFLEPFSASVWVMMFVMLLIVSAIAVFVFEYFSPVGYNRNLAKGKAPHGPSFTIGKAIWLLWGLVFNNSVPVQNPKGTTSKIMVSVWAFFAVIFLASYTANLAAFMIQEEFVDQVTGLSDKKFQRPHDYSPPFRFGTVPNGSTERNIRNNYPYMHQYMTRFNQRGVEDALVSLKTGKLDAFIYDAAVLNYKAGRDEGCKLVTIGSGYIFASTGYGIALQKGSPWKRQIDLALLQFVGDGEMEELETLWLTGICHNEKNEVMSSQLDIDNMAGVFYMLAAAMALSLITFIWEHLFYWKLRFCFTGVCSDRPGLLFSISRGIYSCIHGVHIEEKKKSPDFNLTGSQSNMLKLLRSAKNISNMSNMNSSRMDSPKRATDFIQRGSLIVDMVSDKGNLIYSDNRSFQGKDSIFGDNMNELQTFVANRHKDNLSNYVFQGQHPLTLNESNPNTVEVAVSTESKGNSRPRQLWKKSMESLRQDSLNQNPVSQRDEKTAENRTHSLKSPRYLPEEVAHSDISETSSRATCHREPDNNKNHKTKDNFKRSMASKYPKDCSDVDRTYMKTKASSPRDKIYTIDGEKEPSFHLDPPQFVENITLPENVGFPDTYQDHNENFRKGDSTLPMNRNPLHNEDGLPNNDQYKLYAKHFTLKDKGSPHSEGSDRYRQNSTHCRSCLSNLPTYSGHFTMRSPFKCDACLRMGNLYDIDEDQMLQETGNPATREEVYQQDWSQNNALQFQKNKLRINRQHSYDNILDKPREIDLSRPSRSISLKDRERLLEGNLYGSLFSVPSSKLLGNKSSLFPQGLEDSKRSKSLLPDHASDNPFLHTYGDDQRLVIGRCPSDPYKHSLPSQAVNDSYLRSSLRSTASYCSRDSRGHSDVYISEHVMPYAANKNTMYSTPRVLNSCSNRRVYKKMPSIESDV

[7] = biological target: GluN1/GluN2AC1/GluN2AC2 (Rattus norvegicus, UniProt P35439+Q00959); assay: as above
[8] = biological target: GluN1/GluN2A (Rattus norvegicus, UniProt P35439+Q00959); conditions: 5 ms pulse of 1 mM glutamate, continuous 100 μM glycine, n=6
[9] = biological target: GluN1/GluN2C (Rattus norvegicus, UniProt P35439+Q00961); conditions: 5 ms pulse of 1 mM glutamate, continuous 100 μM glycine, n=8
[10] = system: GluN1/GluN2B/GluN2C receptors; assay: Two-electrode voltage-clamp recordings in Xenopus oocytes; assay type: cell-based, rat; conditions: Figure S1
[11] = biological target: NMDARs in cerebellar granule cells, Grin2C−/− mice (Mus musculus, UniProt P35436+P35438); assay type: cell-based; conditions: 50 μM PYD-106, Grin2C−/− slices, n=8 animals
[12] = biological target: NMDARs in cerebellar granule cells, Grin2A−/− mice (Mus musculus, UniProt P35438+Q01098); assay type: cell-based; conditions: 50 μM PYD-106, Grin2A−/− slices, n=8 animals
NMDARs in cerebellar granule cells, Grin2A−/− mice, sequence (Q01098 20-1239, other chains not shown): as the sequence (Q01098 20-1239, other chains not shown) above

**Q.** With `COc1ccc(OCC2c3cc(OC)c(OC)cc3CCN2C(=O)c2cccc(Cl)c2)cc1` (stereo not shown) [CIQ] as the molecule, how does the “NMDAR-mediated current, % of control” value ([1]; 20 μM CIQ, GluN2C-transfected neurons, n=5) read?
**A.** Its value is 145±9.4%.

**Q.** What about the “NMDAR current response in the presence of ifenprodil, % of baseline” value ([1]; CIQ, 3 μM ifenprodil, GluN2C-transfected neurons, n=4) of the same molecule?
**A.** The value was 131±5%.

**Q.** And the “NMDAR-mediated current, % of baseline” value ([2]; 20 μM CIQ, control (GFP) cortical neurons, n=4)?
**A.** Its value is 96±4.6%.

**Q.** And the “granule cell response to pressure-applied NMDA, % of DCS” value ([3]; 20 μM CIQ, 30 μM DCS, wild type mice, n=6 animals)?
**A.** The value was 141±6.7%.

**Q.** How did the “NMDAR current, % of baseline responses” value [4] turn out when `NCCCNCCCCNCCCN` [Spermine] was run?
**A.** Its value is 142±7.2%.

**Q.** Which “current response, % of control” value [5] does the source give for `NC(CCCP(=O)(O)O)C(=O)O` (racemic) [DL-APV, D,L-2-amino-5-phosphonovalerate] here?
**A.** Its value is 3.4±0.7%.

**Q.** What does the source list for `[Zn+2]` [Zn^2+]?
**A.** GluN2AC1/GluN2CC2(NK) fitted response in saturating Zn2+ as percent of control ([6]; pH 6.8, 0.1 mM Mg2+): 27±1.6 ^c %; GluN2AC1/GluN2CC2(NK) fitted response in saturating Zn2+ as percent of control ([6]; pH 7.3, 0.1 mM Mg2+): 57±0.4 ^c %; IC50 ([6]; pH 6.8, 0.1 mM Mg2+): 0.019 µM; IC50 ([6]; pH 7.3, 0.1 mM Mg2+): 0.045 µM; GluN2AC1/GluN2AC2 fitted response in saturating Zn2+ as percent of control ([7]; pH 6.8, mean ± SEM): 21±1.7 ^c %; GluN2AC1/GluN2AC2 fitted response in saturating Zn2+ as percent of control ([7]; pH 7.3, mean ± SEM): 57±2.0 ^c %

**Q.** Which results are given for `N[C@@H](CCC(=O)O)C(=O)O` [Glutamate]?
**A.** time constant for glutamate deactivation (τ) [8]: 81 ± 8 ms; time constant for glutamate deactivation (τ) [9]: 477 ± 40 ms

**Q.** For `COC(=O)c1ccc(C2C(C(C)=O)=C(O)C(=O)N2CCc2c(C)[nH]c3ccccc23)cc1` (stereo not shown) [PYD-106], which “NMDAR current response in the presence of ifenprodil, % of baseline” value ([1]; 50 μM PYD-106, 3 μM ifenprodil, GluN2C-transfected neurons, n=5) is on record?
**A.** Its value is 72±6%.

**Q.** And the “NMDAR current response, % of control” value ([1]; 50 μM PYD-106, GluN2C-transfected neurons, n=5)?
**A.** The value was 89±1.6%.

**Q.** What about the “sensitivity to PYD-106” value [10] of the same molecule?
**A.** The value was “insensitive”.

**Q.** And the “granule cell response, % of control” value [11]?
**A.** The value was 90±7%.

**Q.** And the “NMDAR current response, % of control” value ([2]; 50 μM PYD-106, GFP control neurons, n=5)?
**A.** The value was 83±0.6%.

**Q.** What about the “granule cell response to pressure-applied NMDA and glycine, % of control” value [12] of the same molecule?
**A.** The value was 164±17%.

**Q.** And the “granule cell response to pressure-applied NMDA, % of DCS alone” value ([3]; 50 μM PYD-106, continuous 30 μM DCS, wild type mice, n=8 animals)?
**A.** Its value is 84±3.8%.

**Q.** What about the “effect on NMDA responses with glycine as the co-agonist” value ([3]; wild type granule cells, n=3 animals, data not shown) of the same molecule?
**A.** The value was “no effect”.

Reference: PMC6090556 (Neuron, 2018)
